14 molecules from US6472391B2, “Nitrogen-containing heterocyclic compounds” (Millennium Pharmaceuticals, Inc., priority 1996, dated 2002) can be followed below.

With `COc1cc2ncnc(N3CCN(C(=S)Nc4cccc(C(C)C)c4)CC3)c2cc1OC` [Compound 151, 4-(6,7-Dimethoxy-4-quinazolinyl)-N-(3-isopropylphenyl)-1-piperazinethiocarboxamide], the melting point (as a rule, the temperature, or range, at which the solid turns liquid) lay in the range of 169 to 171 °C.
`COc1cccc(CNC(=S)N2CCN(c3ncnc4cc(OC)c(OC)cc34)CC2)c1` [Compound 197, 4-(6,7-Dimethoxy-4-quinazolinyl)-N-(3-methoxybenzyl)-1-piperazinethiocarboxamide] showed a melting point of 146 to 147 °C.
Under `COc1cc2ncnc(N3CCN(C(=S)Nc4cccc(Br)c4)CC3)c2cc1OC` [Compound 181, N-(3-Bromophenyl)-4-(6,7-dimethoxy-4-quinazolinyl)-1-piperazinethiocarboxamide] stands 220 to 222 °C; under `COc1cc(NC(=S)N2CCN(c3ncnc4cc(OC)c(OC)cc34)CC2)cc(OC)c1` [Compound 67, N-(3,5-Dimethoxyphenyl)-4-(6,7-dimethoxy-4-quinazolinyl)-1-piperazinethiocarboxamide], 240 to 241 °C; under `COc1cc2ncnc(N3CCN(C(=S)Nc4ccccc4)CC3)c2cc1OC` [Compound 2, 4-(6,7-Dimethoxy-4-quinazolinyl)-N-phenyl-1-piperazinethiocarboxamide], 230 to 232 °C.
Regarding `COc1cc2ncnc(N3CCN(C(=O)Nc4cc(C)cc(C)c4)CC3)c2cc1OC` [Compound 29, 4-(6,7-Dimethoxy-4-quinazolinyl)-N-(3,5-dimethylphenyl)-1-piperazinecarboxamide], the melting point lay within 223 to 226 °C.
In turn, `COc1ccc2c(N3CCN(C(=S)NCc4ccccc4)CC3)ncnc2c1OC` [Compound 384, N-Benzyl-4-(7,8-dimethoxy-4-quinazolinyl)-1-piperazinethiocarboxamide] had a melting point of 158 to 160 °C.
Consider `COc1cc2nncc(N3CCN(C(=O)Nc4ccc(Oc5ccccc5)cc4)CC3)c2cc1OC` [Compound 426, 4-(6,7-Dimethoxy-4-cinnolinyl)-N-(4-phenoxyphenyl)-1-piperazinecarboxamide], for which the melting point was in the range of 165 to 167 °C.
Turning to `CCn1c(=O)n(CC)c2cc3c(N4CCN(C(=O)Nc5ccc(Oc6ccccc6)cc5)CC4)nnc(Cl)c3cc21` [Compound 421, 4-(5-Chloro-1,3-diethyl-1,3-dihydro-2-oxo-2H-imidazo[4,5-g]phthalazin-8-yl)-N-(4-phenoxyphenyl)-1-piperazinecarboxamide], the melting point lay in the range of 172 to 173 °C.
Molecule `COc1cc2ncnc(N3CCN(C(=S)NCC4CCCCC4)CC3)c2cc1OC` [Compound 138, N-Cyclohexylmethyl-4-(6,7-dimethoxy-4-quinazolinyl)-1-piperazinethiocarboxamide] returned a melting point of 170 to 171 °C.
As for `CCCCn1c(=O)n(CCCC)c2cc3c(N4CCN(C(=O)Nc5ccc(Oc6ccccc6)cc5)CC4)ncnc3cc21` [Compound 390, 4-(1,3-Dibutyl-1,3-dihydro-2-oxo-2H-imidazo[4,5-g]quinazolin-8-yl)-N-(4-phenoxyphenyl)-1-piperazinecarboxamide], the melting point fell in the range of 134 to 136 °C.
As to `COc1cc2ncnc(N3CCN(C(=O)Nc4ccc(C#N)nc4)CC3)c2cc1OC` [Compound 273, N-(2-Cyano-5-pyridyl)-4-(6,7-dimethoxy-4-quinazolinyl)-1-piperazinecarboxamide], the melting point lay in the range of 275 to 277 °C.
`COc1cc2ncnc(N3CCN(C(=O)Nc4cccc(C(F)(F)F)c4)CC3)c2cc1OC` [Compound 162, 4-(6,7-Dimethoxy-4-quinazolinyl)-N-(3-trifluoromethylphenyl)-1-piperazinecarboxamide] yielded a melting point of 180 to 181 °C.
Then `O=C(Nc1ccc([N+](=O)[O-])cc1)N1CCN(c2ncnc3cc4c(cc23)OCO4)CC1` [Compound 368, 4-(6,7-Methylenedioxy-4-quinazolinyl)-N-(4-nitrophenyl)-1-piperazinecarboxamide], with 247 to 250 °C.
